# Patent US20220125051A1, “PRE-HARVEST DESICCATION METHOD” (SYNGENTA CROP PROTECTION AG, priority 2019, published 2022)
# Where two headings read alike, the source gives them in different places.
# Columns and labels:
# Test in all cases: Post-emergence efficacy, Method A
# Format in all cases: in vivo
# [1] = tested on: Amaranthus palmeri (AMAPA); details: evaluated after 13 days; for pest or weed control at 500 g/ha: Amaranthus palmeri, post-emergence, 312 h
# Outline: (§1)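 Post-emergence spray on 14-day-old glasshouse plants (24/16 °C day/night, 14 h photoperiod, 65% humidity). Test material was taken up in acetone and IF50 emulsifier mix, then diluted with sodium lauryl ether sulphate (0.25% or 1%) plus 1% ammonium sulphate. Damage was rated 13 days later, 100 = total.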
# [2] = tested on: Chenopodium album (CHEAL); details: Chenopodium album, post-emergence, 312 h, evaluated after 13 days
# Outline: as §1
# [3] = tested on: Digitaria sanguinalis (DIGSA); details: Digitaria sanguinalis, post-emergence, 312 h, evaluated after 13 days
# Outline: as §1
# [4] = tested on: Echinochloa crus-galli (ECHCG); details: Echinochloa crus-galli, post-emergence, 312 h, evaluated after 13 days
# Outline: as §1
# [5] = tested on: Eleusine indica (ELEIN); details: Eleusine indica, post-emergence, 312 h, evaluated after 13 days
# Outline: as §1
# [6] = tested on: Euphorbia heterophylla (EPHHL); details: Euphorbia heterophylla, post-emergence, 312 h, evaluated after 13 days
# Outline: as §1
# [7] = tested on: Ipomoea hederacea (IPOHE); details: Ipomoea hederacea, post-emergence, 312 h, evaluated after 13 days
# Outline: as §1
# [8] = tested on: Lolium perenne (LOLPE); details: Lolium perenne, post-emergence, 312 h, evaluated after 13 days
# Outline: as §1
# [9] = tested on: Setaria faberi (SETFA); details: Setaria faberi, post-emergence, 312 h, evaluated after 13 days
# Outline: as §1
# [10] = Application Rate 500 g/Ha, Method A, read-out: Control of weed species after post-emergence application, AMAPA (100=total damage to plant; 0=no damage to plant)
# [11] = Application Rate 500 g/Ha, Method A, read-out: Control of weed species after post-emergence application, CHEAL (100=total damage to plant; 0=no damage to plant)
# [12] = Application Rate 500 g/Ha, Method A, read-out: Control of weed species after post-emergence application, DIGSA (100=total damage to plant; 0=no damage to plant)
# [13] = Application Rate 500 g/Ha, Method A, read-out: Control of weed species after post-emergence application, ECHCG (100=total damage to plant; 0=no damage to plant)
# [14] = Application Rate 500 g/Ha, Method A, read-out: Control of weed species after post-emergence application, ELEIN (100=total damage to plant; 0=no damage to plant)
# [15] = Application Rate 500 g/Ha, Method A, read-out: Control of weed species after post-emergence application, EPHHL (100=total damage to plant; 0=no damage to plant)
# [16] = Application Rate 500 g/Ha, Method A, read-out: Control of weed species after post-emergence application, IPOHE (100=total damage to plant; 0=no damage to plant)
# [17] = Application Rate 500 g/Ha, Method A, read-out: Control of weed species after post-emergence application, LOLPE (100=total damage to plant; 0=no damage to plant)
# [18] = Application Rate 500 g/Ha, Method A, read-out: Control of weed species after post-emergence application, SETFA (100=total damage to plant; 0=no damage to plant)
# [19] = Application rate 500 g/Ha, 100=total damage to plant, 0=no damage to plant, read-out: Control of weed species after post-emergence application, AMAPA
# [20] = Application rate 500 g/Ha, 100=total damage to plant, 0=no damage to plant, read-out: Control of weed species after post-emergence application, CHEAL
# [21] = Application rate 500 g/Ha, 100=total damage to plant, 0=no damage to plant, read-out: Control of weed species after post-emergence application, DIGSA
# [22] = Application rate 500 g/Ha, 100=total damage to plant, 0=no damage to plant, read-out: Control of weed species after post-emergence application, ECHCG
# [23] = Application rate 500 g/Ha, 100=total damage to plant, 0=no damage to plant, read-out: Control of weed species after post-emergence application, ELEIN
# [24] = Application rate 500 g/Ha, 100=total damage to plant, 0=no damage to plant, read-out: Control of weed species after post-emergence application, EPHHL
# [25] = Application rate 500 g/Ha, 100=total damage to plant, 0=no damage to plant, read-out: Control of weed species after post-emergence application, IPOHE
# [26] = Application rate 500 g/Ha, 100=total damage to plant, 0=no damage to plant, read-out: Control of weed species after post-emergence application, LOLPE
# [27] = Application rate 500 g/Ha, 100=total damage to plant, 0=no damage to plant, read-out: Control of weed species after post-emergence application, SETFA
SMILES,"pest or weed control at 500 g/ha [1, 10]","pest or weed control at 500 g/ha [2, 11]","pest or weed control at 500 g/ha [3, 12]","pest or weed control at 500 g/ha [4, 13]","pest or weed control at 500 g/ha [5, 14]","pest or weed control at 500 g/ha [6, 15]","pest or weed control at 500 g/ha [7, 16]","pest or weed control at 500 g/ha [8, 17]","pest or weed control at 500 g/ha [9, 18]","pest or weed control at 500 g/ha [1, 19]","pest or weed control at 500 g/ha [2, 20]","pest or weed control at 500 g/ha [3, 21]","pest or weed control at 500 g/ha [4, 22]","pest or weed control at 500 g/ha [5, 23]","pest or weed control at 500 g/ha [6, 24]","pest or weed control at 500 g/ha [7, 25]","pest or weed control at 500 g/ha [8, 26]","pest or weed control at 500 g/ha [9, 27]","Control of weed species after post-emergence application, AMAPA ([1]; Application rate 500 g/Ha, 100=total damage to plant, 0=no damage to plant)"
O=C(O)C(O)C[n+]1ccc(-c2ccncn2)cn1 (stereo not drawn) [Compound A190],100%,80%,60%,60%,70%,80%,70%,40%,40%,–,–,–,–,–,–,–,–,–,–
Cc1cc(Cl)cnc1-c1cc[n+](CCS(=O)(=O)[O-])nc1 [Compound A103],–,–,–,–,–,–,–,–,–,0%,50%,20%,30%,30%,50%,30%,10%,10%,–
Cc1cncc(-c2cc[n+](CCC(=O)O)nc2)n1 [Compound A85],–,–,–,–,–,–,–,–,–,90%,90%,90%,70%,90%,100%,30%,70%,90%,–
O=C(O)C(O)C[n+]1ccc(-c2ncccn2)cn1 (stereo not drawn) [Compound A180],100%,90%,60%,70%,90%,80%,20%,30%,70%,–,–,–,–,–,–,–,–,–,–
CCOP(=O)(CC[n+]1ccc(-c2cnccn2)cn1)OCC [Compound A8],–,–,–,–,–,–,–,–,–,10%,10%,20%,10%,20%,10%,10%,0%,20%,–
COc1cnc(-c2cc[n+](CCC(=O)[O-])nc2)nc1 [Compound A38],–,–,–,–,–,–,–,–,–,100%,50%,100%,30%,70%,30%,20%,40%,70%,–
"CCOP(=O)(CC[n+]1ccc(-c2ncccn2)cn1)OCC [Compound A124, 1-(2-diethoxyphosphorylethyl)-4-pyrimidin-2-yl-pyridazin-1-ium]",–,–,–,–,–,–,–,–,–,0%,0%,10%,0%,0%,0%,0%,0%,20%,–
Nc1cc(-c2cc[n+](CCC(=O)O)nc2)nc(N)n1 [Compound A188],90%,50%,40%,50%,20%,30%,20%,20%,30%,–,–,–,–,–,–,–,–,–,–
CNC(=O)c1cnc(-c2cc[n+](CCC(=O)[O-])nc2)nc1 [Compound A93],–,–,–,–,–,–,–,–,–,90%,80%,100%,80%,100%,40%,20%,80%,100%,–
Cc1n[n+](CCC(=O)O)ccc1-c1ncccn1.O=C([O-])C(F)(F)F [Compound A132],–,–,–,–,–,–,–,–,–,–,30%,90%,70%,90%,30%,10%,50%,100%,90
O=S(=O)([O-])CC[n+]1ccc(-c2ccnc(C(F)(F)F)n2)cn1 [Compound A108],–,–,–,–,–,–,–,–,–,40%,80%,50%,40%,60%,80%,70%,40%,60%,–
O=C(O)CC[n+]1ccc(-c2nccc(=O)[nH]2)cn1 [Compound A127],–,–,–,–,–,–,–,–,–,10%,20%,80%,40%,20%,20%,10%,10%,30%,–
CCOC(=O)CC[n+]1ccc(-c2ccccn2)cn1 [Compound A91],–,–,–,–,–,–,–,–,–,40%,20%,50%,60%,60%,40%,20%,20%,60%,–
O=C([O-])CC[n+]1ccc(-c2cccc(C(F)(F)F)n2)cn1 [Compound A73],–,–,–,–,–,–,–,–,–,40%,30%,30%,60%,60%,60%,30%,40%,60%,–
